Source: patent publication US12024510B2, “Pyrazolopyridine-diamides, their use as insecticide and processes for preparing the same” (PI INDUSTRIES LTD., priority 2017, dated 2024)

Key:
Assay type in all cases: in vivo
Helicoverpa armigera = Helicoverpa armigera diet incorporation method; details: third instar larvae, dead and moribund combined, 96 h after release
Method in brief: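 Third-instar larvae, starved, were placed singly on diet pieces containing test dispersion (bead-milled in surfactant, particles under 2 μm, 500 ppm stock then diluted). Trays kept at 25° C. and 70% RH; mortality counted at 96 h, moribund larvae counted with dead.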

Plutella xylostella = experiment: whole plant or invertebrate; details: foliar, cabbage leaf dip, second instar larvae, dead and moribund combined, 72 h after release
Method in brief: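 Leaf-dip bioassay: second-instar larvae, singly, fed on cabbage leaves dipped 10 s in test dispersion (bead-milled, diluted with 0.01% Triton-X to test concentration) and dried 20 min. Held at 25 °C, 70% RH; % mortality counts dead and moribund at 72 h.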

Spodoptera litura = Spodoptera litura diet incorporation method; details: third instar larvae, dead and moribund combined, 96 h after release
Method in brief: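 Compound milled to <2 μm average particle size in surfactant, dispersed in water (500 ppm stock dispersion), then mixed into semi-synthetic diet at ~50° C. One starved third-instar larva per diet cell, 25° C, 70% RH; percent mortality (dead plus moribund) scored at 96 h.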

Measured: mortality at 300 ppm

Cc1cc2ccnn2c(C(=O)NC(C)C)c1NC(=O)c1cc(Br)nn1-c1ncccc1Cl [Compound 4, 6-(3-bromo-1-(3-chloropyridin-2-yl)-1H-pyrazole-5-carboxamido)-N-isopropyl-5-methylpyrazolo[1,5-a]pyridine-7-carboxamide]
> 70%: all assays above

COc1cc(C(=O)Nc2c(Br)cc3ccnn3c2C(=O)NC(C)(C)C)n(-c2ncccc2Cl)n1 [Compound 119, 5-bromo-N-(tert-butyl)-6-(1-(3-chloropyridin-2-yl)-3-methoxy-1H-pyrazole-5-carboxamido)pyrazolo[1,5-a]pyridine-7-carboxamide]
> 70%: all assays above

Cc1cc2ccnn2c(C(=O)NC(C)(C)C)c1NC(=O)c1cc(Br)nn1-c1ncccc1Cl [Compound 8, 6-(3-bromo-1-(3-chloropyridin-2-yl)-1H-pyrazole-5-carboxamido)-N-(tert-butyl)-5-methylpyrazolo[1,5-a]pyridine-7-carboxamide]
> 70%: all assays above

Cc1cc2ccnn2c(C(=O)NC(C)C)c1NC(=O)c1cc(OCC(F)(F)F)nn1-c1ncccc1Cl [Compound 12, 6-(1-(3-chloropyridin-2-yl)-3-(2,2,2-trifluoroethoxy)-1H-pyrazole-5-carboxamido)-N-isopropyl-5-methylpyrazolo[1,5-a]pyridine-7-carboxamide]
> 70%: all assays above

C=CCNC(=O)c1c(NC(=O)c2cc(OCC(F)(F)F)nn2-c2ncccc2Cl)c(C)cc2ccnn12 [Compound 20, N-allyl-6-(1-(3-chloropyridin-2-yl)-3-(2,2,2-trifluoroethoxy)-1H-pyrazole-5-carboxamido)-5-methylpyrazolo[1,5-a]pyridine-7-carboxamide]
> 70%: all assays above

Cc1cc2ccnn2c(C(=O)NC2CC2)c1NC(=O)c1cc(Br)nn1-c1ncccc1Cl [Compound 5, 6-(3-bromo-1-(3-chloropyridin-2-yl)-1H-pyrazole-5-carboxamido)-N-cyclopropyl-5-methylpyrazolo[1,5-a]pyridine-7-carboxamide]
> 70%: all assays above

CC(C)NC(=O)c1c(NC(=O)c2cc(Br)nn2-c2ncccc2Cl)c(Cl)cc2ccnn12 [Compound 138, 6-(3-bromo-1-(3-chloropyridin-2-yl)-1H-pyrazole-5-carboxamido)-5-chloro-N-isopropylpyrazolo[1,5-a]pyridine-7-carboxamide]
> 70%: all assays above

Cc1cc2ccnn2c(C(=O)NC(C)C)c1NC(=O)c1cc(C(F)(F)F)nn1-c1ncccc1Cl [Compound 60, 6-(1-(3-chloropyridin-2-yl)-3-(trifluoromethyl)-1H-pyrazole-5-carboxamido)-N-isopropyl-5-methylpyrazolo[1,5-a]pyridine-7-carboxamide]
> 70%: all assays above

CONC(=O)c1c(NC(=O)c2cc(Br)nn2-c2ncccc2Cl)c(C)cc2ccnn12 [Compound 24, 6-(3-bromo-1-(3-chloropyridin-2-yl)-1H-pyrazole-5-carboxamido)-N-methoxy-5-methylpyrazolo[1,5-a]pyridine-7-carboxamide]
> 70%: all assays above

COCC(C)(C)NC(=O)c1c(NC(=O)c2cc(Br)nn2-c2ncccc2Cl)c(C)cc2ccnn12 [Compound 174, 6-(3-bromo-1-(3-chloropyridin-2-yl)-1H-pyrazole-5-carboxamido)-N-(1-methoxy-2-methylpropan-2-yl)-5-methylpyrazolo[1,5-a]pyridine-7-carboxamide]
> 70%: all assays above

COc1cc(C(=O)Nc2c(C)cc3ccnn3c2C(=O)NC(C)C2CC2)n(-c2ncccc2Cl)n1 (stereo not drawn) [Compound 99, 6-(1-(3-chloropyridin-2-yl)-3-methoxy-1H-pyrazole-5-carboxamido)-N-(1-cyclopropylethyl)-5-methylpyrazolo[1,5-a]pyridine-7-carboxamide]
> 70%: all assays above

CNC(=O)c1c(NC(=O)c2cc(Br)nn2-c2ncccc2Cl)c(Cl)cc2ccnn12 [Compound 148, 6-(3-bromo-1-(3-chloropyridin-2-yl)-1H-pyrazole-5-carboxamido)-5-chloro-N-methylpyrazolo[1,5-a]pyridine-7-carboxamide]
> 70%: all assays above

Cc1cc2ccnn2c(C(=O)NCCC#N)c1NC(=O)c1cc(Br)nn1-c1ncccc1Cl [Compound 22, 6-(3-bromo-1-(3-chloropyridin-2-yl)-1H-pyrazole-5-carboxamido)-N-(2-cyanoethyl)-5-methylpyrazolo[1,5-a]pyridine-7-carboxamide]
> 70%: all assays above

CCNC(=O)c1c(NC(=O)c2cc(Br)nn2-c2ncccc2Cl)c(C)cc2ccnn12 [Compound 2, 6-(3-bromo-1-(3-chloropyridin-2-yl)-1H-pyrazole-5-carboxamido)-N-ethyl-5-methylpyrazolo[1,5-a]pyridine-7-carboxamide]
> 70%: all assays above

CNC(=O)c1c(NC(=O)c2cc(OC)nn2-c2ncccc2Cl)c(Cl)cc2ccnn12 [Compound 135, 5-chloro-6-(1-(3-chloropyridin-2-yl)-3-methoxy-1H-pyrazole-5-carboxamido)-N-methylpyrazolo[1,5-a]pyridine-7-carboxamide]
> 70%: all assays above

CC(C)(C)NC(=O)c1c(NC(=O)c2cc(Br)nn2-c2ncccc2Cl)c(Br)cc2ccnn12 [Compound 53, 5-bromo-6-(3-bromo-1-(3-chloropyridin-2-yl)-1H-pyrazole-5-carboxamido)-N-(tert-butyl)pyrazolo[1,5-a]pyridine-7-carboxamide]
> 70%: all assays above

CNC(=O)c1c(NC(=O)c2cc(N3CC(F)(F)C3)nn2-c2ncccc2Cl)c(C)cc2ccnn12 [Compound 68, 6-(1-(3-chloropyridin-2-yl)-3-(3,3-difluoroazetidin-1-yl)-1H-pyrazole-5-carboxamido)-N,5-dimethylpyrazolo[1,5-a]pyridine-7-carboxamide]
> 70%: all assays above

Cc1cc2ccnn2c(C(=O)NC(C)C)c1NC(=O)c1cc(Oc2cc(C(F)(F)F)nn2C)nn1-c1ncccc1Cl [Compound 71, 6-(1-(3-chloropyridin-2-yl)-3-((1-methyl-3-(trifluoromethyl)-1H-pyrazol-5-yl)oxy)-1H-pyrazole-5-carboxamido)-N-isopropyl-5-methylpyrazolo[1,5-a]pyridine-7-carboxamide]
> 70%: all assays above

COc1cc(C(=O)Nc2c(C)cc3ccnn3c2C(=O)NCC#N)n(-c2ncccc2Cl)n1 [Compound 40, 6-(1-(3-chloropyridin-2-yl)-3-methoxy-1H-pyrazole-5-carboxamido)-N-(cyanomethyl)-5-methylpyrazolo[1,5-a]pyridine-7-carboxamide]
> 70%: all assays above

Cc1cc2ccnn2c(C(=O)NCC#N)c1NC(=O)c1cc(OCC(F)(F)F)nn1-c1ncccc1Cl [Compound 15, 6-(1-(3-chloropyridin-2-yl)-3-(2,2,2-trifluoroethoxy)-1H-pyrazole-5-carboxamido)-N-(cyanomethyl)-5-methylpyrazolo[1,5-a]pyridine-7-carboxamide]
> 70%: all assays above
